Results taken from patent publication US12558357B2, “Tetrahydroquinazoline derivatives as selective cytotoxic agents” (Merck Sharp & Dohme LLC, priority 2020, dated 2026).

These compounds were tested on PBMCs infected with VSV-G pseudotyped HIV virus (VSV-G/pNLG1-P2A-ΔEnv) (assay: cells). Conditions: Homo sapiens, PBMC, read-out: EC50 (HIV-TACK cell kill activity).
Format: cell-based, human

Compound | EC50 [nM]
CC(F)(F)[C@@]1(C#CC2CC2)NC(=O)Nc2cc(Cn3cnccc3=O)c(F)cc21 [Example 4, (S)-4-(cyclopropylethynyl)-4-(1,1-difluoroethyl)-6-fluoro-7-((6-oxopyrimidin-1(6H)-yl)methyl)-3,4-dihydroquinazolin-2(1H)-one] | 16
Nc1nccn(Cc2ccc3c(c2)NC(=S)N[C@]3(C#CC2CC2)C(F)(F)F)c1=O [Example 71, (S)-3-amino-1-((4-(cyclopropylethynyl)-2-thioxo-4-(trifluoromethyl)-1,2,3,4-tetrahydroquinazolin-7-yl)methyl)pyrazin-2(1H)-one] | 41
O=C1Nc2cc(Cn3cnccc3=O)c(Cl)cc2[C@@](C#CC2CC2)(C(F)(F)F)N1 [Example 56, (S)-6-chloro-4-(cyclopropylethynyl)-7-((6-oxopyrimidin-1(6H)-yl)methyl)-4-(trifluoromethyl)-3,4-dihydroquinazolin-2(1H)-one] | 35
CC(F)(F)[C@@]1(C#CC2CC2)NC(=O)Nc2cc(Cn3cnccc3=O)c(Cl)cc21 [Example 48, (S)-6-chloro-4-(cyclopropylethynyl)-4-(1,1-difluoroethyl)-7-((6-oxopyrimidin-1(6H)-yl)methyl)-3,4-dihydroquinazolin-2(1H)-one] | 12
O=C1Nc2cc(Cn3cnccc3=O)c(F)cc2[C@@](C#CC2CC2)(C(F)(F)F)N1 [Example 1, (S)-4-(cyclopropylethynyl)-6-fluoro-7-((6-oxopyrimidin-1(6H)-yl)methyl)-4-(trifluoromethyl)-3,4-dihydroquinazolin-2(1H)-one] | 22
COCc1cc(=O)n(Cc2ccc3c(c2)NC(=O)N[C@]3(C#CC2CC2)C(C)(F)F)cn1 [Example 15, (S)-4-(cyclopropylethynyl)-4-(1,1-difluoroethyl)-7-((4-(methoxymethyl)-6-oxopyrimidin-1(6H)-yl)methyl)-3,4-dihydroquinazolin-2(1H)-one] | 65
Cc1cc(=O)n(Cc2cc3c(cc2Cl)[C@@](C#CC2CC2)(C(F)(F)F)NC(=O)N3)cn1 [Example 3, (S)-6-chloro-4-(cyclopropylethynyl)-7-((4-methyl-6-oxopyrimidin-1(6H)-yl)methyl)-4-(trifluoromethyl)-3,4-dihydroquinazolin-2(1H)-one] | 26
Nc1nccn(Cc2c(F)cc3c(c2F)NC(=O)N[C@]3(C#CC2CC2)C(F)(F)F)c1=O [Example 20, (S)-7-((3-amino-2-oxopyrazin-1(2H)-yl)methyl)-4-(cyclopropylethynyl)-6,8-difluoro-4-(trifluoromethyl)-3,4-dihydroquinazolin-2(1H)-one] | 47
O=C1Nc2cc(Cn3cnc(Cl)cc3=O)c(Cl)cc2[C@@](C#CC2CC2)(C(F)(F)F)N1 [Example 12, (S)-6-chloro-7-((4-chloro-6-oxopyrimidin-1(6H)-yl)methyl)-4-(cyclopropylethynyl)-4-(trifluoromethyl)-3,4-dihydroquinazolin-2(1H)-one] | 33
O=C1Nc2cc(Cn3cnc(C(F)(F)F)cc3=O)c(F)cc2[C@@](C#CC2CC2)(C(F)(F)F)N1 [Example 38, (S)-4-(cyclopropylethynyl)-6-fluoro-7-((6-oxo-4-(trifluoromethyl)pyrimidin-1(6H)-yl)methyl)-4-(trifluoromethyl)-3,4-dihydroquinazolin-2(1H)-one] | 87
O=C1Nc2cc(Cn3cnc(C(F)F)cc3=O)c(F)cc2[C@@](C#CC2CC2)(C(F)(F)F)N1 [Example 6, (S)-4-(cyclopropylethynyl)-7-((4-(difluoromethyl)-6-oxopyrimidin-1(6H)-yl)methyl)-6-fluoro-4-(trifluoromethyl)-3,4-dihydroquinazolin-2(1H)-one] | 38
